Reference: patent US20090317476A1, “COMBINATION OF DEHYDROEPIANDROSTERONE OR DEHYDROEPIANDROSTERONE-SULFATE WITH A LEUKOTRIENE RECEPTOR ANTAGONIST FOR TREATMENT OF ASTHMA OR CHRONIC OBSTRUCTIVE PULMONARY DISEASE” (priority 2003, published 2009)
Several values for one entry are separate records, joined by “and”; a condition that tells them apart may be missing. Equal entries are not always repeated.

Experiments:
[1] = Solubility of DHEA-S as a function of NaCl and temperature; assay type: physicochemical; conditions: 20 mM Na^+; Ksp 1316 mM^2; 15° C.
Excerpt: Inhalation of pure water can produce a cough stimulus. […] The temperature effect is weaker at high NaCl concentrations.

[2] = Short-term solution stability of DHEA-S formulation; assay type: physicochemical; conditions: for Appearance on storage: 10 mg/mL in 0.12% NaCl
Procedure: Aliquots of this solution are filled into clear glass vials and stored at RT (24-26° C.) and at 40° C. The samples are checked daily for DHEA-S content, DHEA content, and appearance. For each time point, duplicate samples are withdrawn and diluted from each vial. […] The study is stopped on day three. […] The solution should easily be stable for the day of reconstitution in a clinical trial. The following section describes the aerosol properties of this formulation.

[3] = tested on: rat peritoneal mast cells; assay: Mast cell degranulation (histamine secretion) after compound 48/80; assay type: cell-based
Excerpt: Leukotrienes are synthesized within—although not exclusively by the mast cell (Gilchrist, M., McCauley, S.D., & Befus, A. D. (2004) Expression, localization, and regulation of NOS in human mast cell lines: effects on leukotriene production. Blood 104, 462-469.). We determined whether DHEA-sulfate would reduce mast cell degranulation after stimulation with compound 48/80 in rat peritoneal mast cells. Mast cell degranulation was quantified by measurement of histamine, another substance contained within the secretory granules of mast cells. The simple measurement of released histamine is used as a convenient surrogate marker for the release of leukotrienes.
Freshly isolated rat peritoneal mast cells (2×10^5 cells) were pre-incubated for 5 min at 37° C. in a Balanced Salt Solution containing 150 mM NaCl (pH 7.4), 2.7 mM KCl, 0.9 mM CaCl2, 4 mM Na2HPO4, 2.7 mM KH2PO4, 1.75 mg/ml BSA and 0.1 μg/ml compound 48/80. Thereafter, DHEAS or water (control) are added and the mixture is incubated for 2 min at 37° C.
Following incubation, the mixture is cooled to 4° C. then centrifuged at 4500 rpm for 5 min. […]
The amount of secreted histamine is quantified by measuring the fluorescence intensity at λex=360 nm and λem=450 nm using a spectrofluorimeter (GeminiXS, Molecular Devices). The results are expressed as a percent inhibition of control histamine secretion.

HT-29 SF cells = assay: DHEA effect on cell cycle, flow cytometry; assay type: cell-based, human; conditions: 25, 50, 200 μM; 24-72 hours
Procedure: Cells were plated at 10^5/60-mm dish in duplicate. […] Cultures were trypsinized following 0, 24, 48, or 74 hours and fixed and stained using a modification of a procedure of Bauer et al., Cancer Res. 46, 3173-3178 (1986). Briefly, cells were collected by centrifugation and resuspended in cold phosphate-buffered saline. Cells were fixed in 70% ethanol, washed, and resuspended in phosphate-buffered saline.
After 24, 48, and 72 hours, cells were harvested, fixed in ethanol, and stained with propidium iodide, and the DNA content/cell was determined by flow cytometric analysis. The percentage of cells in G1, S, and G2M phases was calculated using the Cellfit cell cycle analysis program. S phase is marked by a quadrangle for clarity. Representative histograms from duplicate determinations are shown. The experiment was repeated three times.

[4] = Solid-state stability neat and with lactose at 50° C. (DHEA formed, HPLC); assay type: physicochemical
Excerpt: These conditions were used to stress the formulation in order to predict its long-term stability results. […] The primary degradant is DHEA. […] The materials on accelerated storage become more cohesive with time as evidenced by clumping during sample weighing for chemical analysis. […] This is a considerable disadvantage since lactose is the most commonly used inhalation excipient for dry powder formulations. Continuing with the virtually anhydrous form would mean limiting formulations to neat powder or undertaking more comprehensive safety studies to use a novel excipient.

[5] = Physicochemical testing of DHEA-S dihydrate before and after micronization; conditions: for Water (% w/w): Karl Fischer
Procedure: Surface area is determined using five point BET analyses are performed with nitrogen as the adsorbing gas (P/Po=0.05 to 0.30) using a Micromeritics TriStar surface area analyzer. Particle size distributions are measured by laser diffraction using a Micromeritics Saturn Digisizer where the particles are suspended in mineral oil with sodium dioctyl sodium sulfosuccinate as a dispersing agent. Drug substance water content is measured by Karl Fischer titration (Schott Titroline KF). Pure water is used as the standard and all relative standard deviations for triplicates are less than 1%. Powder is added directly to the titration media.

[6] = Particle size by Malvern Mastersizer X / light microscope after jet milling or spray drying; assay type: physicochemical
Procedure: Approximately 1 g sample was passed through the jet mill, once, and approximately 2 g sample were passed through the jet mill twice. […] The resulting solution was sonicated for 3 minutes and appeared fully dispersed. The dispersed solutions were tested on a Malvern Mastersizer X with a small volume sampler (SVS) attachment. One sample of dispersed material was tested 5 times. The median particle size or D (v, 0.5) of unmilled material was 52.56 μm and the % RSD (relative standard deviation) was 7.61 for the 5 values. The D (v, 0.5) for a single pass through the jet mill was 3.90 μm and the % RSD was 1.27, and the D (v, 0.5) from a double pass through the jet mill 3.25 μm and the % RSD was 3.10.
The solution was spray-dried with a B-191 Mini Spray-Drier (Buchi, Flawil, Switzerland) with an inlet temperature of 55° C., outlet temperature of 40° C., at 100% aspirator, at 10% pump, nitrogen flow at 40 mbar and spray flow at 600 units. The spray-dried product was suspended in hexane and Span85 surfactant added to reduce agglomeration. The dispersions were sonicated with cooling for 3-5 minutes for complete dispersion and the dispersed solutions tested on a Malvern Mastersizer X with a Small Volume Sampler (SVS) attachment. […] Visual examination by light microscope of the dispersions of each batch confirmed that spray drying produced small respirable size particles. The mean particle size was 2.4 μm and 2.0 μm for each batch, respectively.

[7] = cited from earlier work
Intracellular adenosine = assay: In vivo effect on adenosine levels in rat tissues
Procedure: Folinic acid (50 mg/kg) was administered intraperitoneally once daily for fourteen days. […] Hearts were removed from animals and flash frozen in liquid nitrogen with 10 s of death. Liver and lungs were removed en bloc and flash frozen with 30 s of death. Brain tissue was subsequently dissected.

With `C[C@]12CC[C@H](OS(=O)(=O)[O-])CC1=CC[C@@H]1[C@@H]2CC[C@]2(C)C(=O)CC[C@@H]12.[Na+]` [DHEA-S, sodium dehydroepiandrostenone sulfate] the “calculated DHEA-S solution concentration” value [1] was 10.7 mg/mL, the “calculated DHEA-S^− solution concentration” value [1] was 27.5 mM and the “Stability of nebulizer formulation” value ([2]; 7.5 mg/mL of DHEA-S in 0.12% NaCl, RT) was “stable for at least one day at RT”. The Appearance on storage ([2]; 40° C.) was “became cloudy after two days of storage”, the Appearance on storage ([2]; RT (24-26° C.)) was “slight precipitate is observed on the third day” and the “maximal effect, percent inhibition of control histamine secretion” value ([3]; at 0.1 uM, compound 48/80 stimulated) was 69.9%. For the same compound, the “solubility under the assay conditions” value ([3]; at 10^-4 M) was “highly limited”.

In the case of `C[C@]12CC[C@H](O)CC1=CC[C@@H]1[C@@H]2CC[C@]2(C)C(=O)CC[C@@H]12` [DHEA, 3β-hydroxyandrost-5-en-17-one], the “Effect on cell cycle distribution” value (HT-29 SF cells) was “G1 block”.

For `C[C@]12CC[C@H](OS(=O)(=O)[O-])CC1=CC[C@@H]1[C@@H]2CC[C@]2(C)C(=O)CC[C@@H]12.O.O.[Na+]` [DHEA-S•dihydrate], the “Percent DHEA formed” value ([4]; DHEA-S dihydrate, 50° C., 1 week) was 0.216%, the “Percent DHEA formed” value ([4]; DHEA-S dihydrate, 50° C., 3 weeks) was 0.317% and the “Percent DHEA formed” value ([4]; DHEA-S dihydrate, 50° C., 4 weeks) was 0.374%. For the same compound, the “water content, starting value” ([4]; before storage) was 8.8%, the “Percent DHEA formed” value ([4]; dihydrate, Control, neat, sealed, 25° C., 4 weeks) was 0.218% and the “Percent DHEA formed” value ([4]; dihydrate, Control, neat, sealed, 25° C., Time (Weeks)) was 0.213%. For the same compound, the “water content after accelerated storage” value ([4]; one week at 50° C.) was 8.66%, the “Particle size (D50%)” value ([5]; Bulk) was 31 microns and the “Water (% w/w)” value ([5]; Bulk) was 8.5 % w/w. The “Particle size (D50%)” value ([5]; Micronized) was 3.7 microns, the “Water (% w/w)” value ([5]; Micronized) was 8.4 % w/w and the “Surface area (m^2/g)” value ([5]; Micronized, five point BET) was 4.9 m^2/g.

In the case of `C[C@]12CC[C@H](OS(=O)(=O)[O-])CC1=CC[C@@H]1[C@@H]2CC[C@]2(C)C(=O)CC[C@@H]12.[Na+]` [Spray-Dried Drug Product], the mean particle sizes ([6]; two batches of spray dried material, Malvern Mastersizer X, listed as spray-dried product) was 5.07±0.70 μm and 6.66±0.91 μm.

For `COc1cc(C(=O)NS(=O)(=O)c2ccccc2C)ccc1Cc1cn(C)c2ccc(NC(=O)OC3CCCC3)cc12` [Zafirlukast, 4(5-cyclopentyloxy-carbonylamino-1-methyl-indol-3ylmethyl)-3methoxy-N-o-tolylsulfonylbenzamide], the Solubility in acetone [7] is given as “freely soluble”, the Solubility in dimethylsulfoxide [7] is given as “freely soluble” and the Solubility in methanol [7] is given as “slightly soluble”. The Solubility in tetrahydrofuran [7] was “freely soluble” and the Solubility in water [7] was “practically insoluble”.

With `C[C@]12CC[C@H](OS(=O)(=O)[O-])CC1=CC[C@@H]1[C@@H]2CC[C@]2(C)C(=O)CC[C@@H]12.[Na+]` [Anhydrous DHEA-S] the “D (v, 0.5)” value ([6]; double pass through the jet mill) was 3.25 μm, the “D (v, 0.5)” value ([6]; single pass through the jet mill) was 3.90 μm and the “median particle size or D (v, 0.5)” value ([6]; unmilled material) was 52.56 μm.

In the case of `Nc1nc(=O)c2c([nH]1)NCC(CNc1ccc(C(=O)N[C@@H](CCC(=O)O)C(=O)O)cc1)N2C=O` (mixture of isomers) [Folinic Acid, Folinic acid], the “Effect on adenosine levels, administered alone” value (Intracellular adenosine; all organs studied) was “increase in adenosine levels” and the “Effect of coadministration of folinic acid on steroid-mediated adenosine depletion” value (Intracellular adenosine; with DHEA or methyltestosterone) was “completely abrogated steroid-mediated adenosine depletion”.
